Measured values taken from article PMC12489471, “A multi-dentate, cooperative interaction between endo- and exo-ribonucleases within the bacterial RNA degradosome” (Nucleic Acids Research, 2025).

Experiments:
[1] = tested on: PNPase core; conditions: X-ray, PDB: 3GCM; cited from earlier work
Text: Previous studies identified a PNPase binding motif encompassing residues 1039–1061 at the very C-terminus of E. coli RNase E (Fig. 1). […] Following the β-strand, there is a stretch of eight residues containing three prolines and two charged amino acids. The RNase E residues 1048–1061 will be referred to as ‘β1 motif’ hereafter (Fig. 2A). Multiple sequence alignment s ...

[2] = target: the molecule itself; assay: cryo-EM structure; purified PNPase core and RNase E-muGFP-CHis mixed 1:2, complex separated on Superdex 200 Increase in 20 mM Tris–HCl pH 8.0, 25 mM MgCl2, 150 mM KCl, 1 mM TCEP; 8 mM CHAPSO; E. coli and S. enterica proteins

Molecule	binding mode in crystal structure [1]	stoichiometry N [2]
RNase E residues 1021–1061: peptide encompassing RNase E residues 1021–1061 in crystal structure with PNPase (EAPRHSDWQRPTFAFEGKGAAGGHTATHHASAAPARPQPVE; UniProt P21513 1021-1061, looked up, fragment)	forms a β-strand that extends an exposed β-sheet of the PNPase core	–
S. enterica PNPase core (domain or fragment, Salmonella enterica serovar Typhimurium, UniProt Q8ZLT3 1-552, looked up, polynucleotide phosphorylase (PNPase) core, Salmonella enterica serovar Typhimurium, aa 1–552; also called Salmonella typhimurium polynucleotide phosphorylase core; source: E. coli Evo21(DE3), purified (Ni-NTA, intein cleavage, HIC, Q, Superdex 200); not shown: Mycobacterium xenopi GyrA intein, C-terminal, cleaved; His8, C-terminal, cleaved) MLNPIVRKFQYGQHTVTLETGMMARQATAAVMVSMDDTAVFVTVVGQKKAKPGQDFFPLTVNYQERTYAAGRIPGSFFRREGRPSEGETLIARLIDRPVRPLFPEGFVNEVQVIATVVSVNPQVNPDIVAMIGASAALSLSGIPFNGPIGAARVGYINDQYVLNPTQDELKESKLDLVVAGTEAAVLMVESEAELLSEDTMLGAVVFGHEQQQVVIQAINDLVKEAGKPRWDWQPEAVNDALNARVAALAESRLSDAYRITDKQERYAQVDVIKSETIEQLIAEDETLDANELGEILHAIEKNVVRSRVLAGEPRIDGREKDMIRGLDVRTGVLPRTHGSALFTRGETQALVTATLGTARDAQVLDELMGERTDSFLFHYNFPPYSVGETGMVGSPKRREIGHGRLAKRGVLAVMPDMDKFPYTVRVVSEITESNGSSSMASVCGASLALMDAGVPIKAAVAGIAMGLVKEGDNYVVLSDILGDEDHLGDMDFKVAGSRDGISALQMDIKIEGITKEIMQVALNQAKGARLHILGVMEQAINAPRGDISEFA	–	3
